Experimental findings from publication PMC3028519 (Toxicology and applied pharmacology, 2010) are described below.

One data set is described as follows: Disposition of Hg. As to conditions: for renal burden of Hg (total renal mass): HgCl2 0.5 μmol/kg (+1.25 μmol/kg Cys) or CH3HgCl 5 μmol/kg (+12.5 μmol/kg Cys); for administered dose present in blood / renal burden of Hg: rats, strain not stated (discussion); for cortical concentration of Hg, TR− rats compared with corresponding control rats / cortical concentration of Hg, compared with rats of the same strain exposed to HgCl2 or CH3HgCl alone: renal cortex; for distribution of Hg in blood between plasma and cellular components: each group of rats.

For a further data set, the target named is human MRP2 (Homo sapiens, UniProt Q92887). The format is in vitro ADME. As to conditions: 37°C, inside-out Sf9 membrane vesicles.
Where [1] appears, read: both control and TR− rats, 24 h, data not shown.
[2] abbreviates: control (Wistar) rats, i.v., 24 h.

Like-named read-outs stand apart in the source and are kept apart here.

Chain of human MRP2 (Q92887 whole entry): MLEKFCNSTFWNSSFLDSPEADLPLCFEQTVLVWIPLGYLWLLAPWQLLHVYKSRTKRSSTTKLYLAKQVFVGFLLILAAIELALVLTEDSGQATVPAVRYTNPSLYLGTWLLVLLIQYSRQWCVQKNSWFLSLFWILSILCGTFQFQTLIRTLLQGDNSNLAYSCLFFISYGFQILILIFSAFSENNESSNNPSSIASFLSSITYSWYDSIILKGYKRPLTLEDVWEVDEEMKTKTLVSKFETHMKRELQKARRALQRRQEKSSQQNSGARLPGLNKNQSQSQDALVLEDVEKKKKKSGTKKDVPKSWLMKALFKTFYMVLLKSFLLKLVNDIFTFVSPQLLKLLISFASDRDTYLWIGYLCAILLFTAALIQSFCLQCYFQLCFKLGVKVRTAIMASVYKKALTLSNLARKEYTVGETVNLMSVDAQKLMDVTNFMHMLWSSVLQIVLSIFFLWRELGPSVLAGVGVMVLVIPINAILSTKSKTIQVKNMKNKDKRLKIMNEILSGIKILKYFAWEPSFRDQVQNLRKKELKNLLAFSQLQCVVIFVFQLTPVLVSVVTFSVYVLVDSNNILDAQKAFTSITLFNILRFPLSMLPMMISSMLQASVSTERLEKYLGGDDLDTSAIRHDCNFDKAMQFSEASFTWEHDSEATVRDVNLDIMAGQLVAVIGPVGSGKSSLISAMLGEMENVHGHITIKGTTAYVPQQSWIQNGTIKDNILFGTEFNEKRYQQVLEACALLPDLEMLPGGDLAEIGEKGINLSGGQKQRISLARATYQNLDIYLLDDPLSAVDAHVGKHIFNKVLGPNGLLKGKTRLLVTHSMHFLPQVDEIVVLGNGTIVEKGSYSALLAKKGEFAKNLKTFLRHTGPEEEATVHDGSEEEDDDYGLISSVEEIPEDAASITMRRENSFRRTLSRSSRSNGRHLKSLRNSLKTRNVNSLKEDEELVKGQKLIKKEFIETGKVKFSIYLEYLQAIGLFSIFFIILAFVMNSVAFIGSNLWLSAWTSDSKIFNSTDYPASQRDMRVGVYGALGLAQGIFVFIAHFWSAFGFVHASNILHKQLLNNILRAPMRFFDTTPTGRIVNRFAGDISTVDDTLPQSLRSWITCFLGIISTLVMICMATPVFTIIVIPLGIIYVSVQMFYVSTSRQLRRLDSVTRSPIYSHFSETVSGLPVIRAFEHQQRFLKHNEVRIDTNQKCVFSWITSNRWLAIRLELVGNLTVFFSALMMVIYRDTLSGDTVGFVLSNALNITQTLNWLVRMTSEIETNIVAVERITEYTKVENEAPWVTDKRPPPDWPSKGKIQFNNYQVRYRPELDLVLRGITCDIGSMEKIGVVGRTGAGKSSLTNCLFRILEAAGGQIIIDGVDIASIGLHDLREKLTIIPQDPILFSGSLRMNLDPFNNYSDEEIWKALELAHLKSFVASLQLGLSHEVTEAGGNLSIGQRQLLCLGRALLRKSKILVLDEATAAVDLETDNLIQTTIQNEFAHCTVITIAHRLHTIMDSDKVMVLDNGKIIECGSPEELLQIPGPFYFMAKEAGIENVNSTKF

For `[CH3][Hg][Cl]` [CH3HgCl, methylmercuric chloride], in the data set “Disposition of Hg” (TR− rats, i.v., 24 h), the “hepatic burden of Hg” value is recorded as “about 14 % of the dose” and the “renal burden of Hg (total renal mass)” value is on record as “approximately 5 % of the administered dose”. For the same compound, in “Disposition of Hg” (setting [1]), the “hematological burden of Hg associated with cellular components of blood” value was “approximately 99%” and the “hematological burden of Hg present in plasma” value is on record as about 1%. Also, the “renal burden of Hg (total renal mass)” value in “Disposition of Hg” (setting [2]) is recorded as “approximately 5 % of the administered dose”. The “urinary excretion of Hg in 24 h” value in the data set “Disposition of Hg” (control rats, i.v.) is reported as “approximately 0.5 % of the administered dose”. Further, in “Disposition of Hg” (i.v., 24 h), the “amount of Hg in blood, TR− rats compared with corresponding control rats” value is reported as “did not significantly alter”; the “hepatic burden of Hg, TR− rats compared with corresponding control rats” value was “two-fold greater”; the “renal burden of Hg, TR− rats compared with corresponding control rats” value is reported as “No significant differences”; the “urinary excretion of Hg, control rats compared with corresponding TR− rats” value is recorded as “not significantly different”. In the data set “Disposition of Hg” (i.v., 24 h), the “administered dose present in blood” value was “over 40%”; the “renal burden of Hg” value is “about 5 % of the dose”; the “cortical concentration of Hg, TR− rats compared with corresponding control rats” value is on record as “similar”.

Turning to `N[C@@H](CS)C(=O)[O-].N[C@@H](CS)C(=O)[O-].[Hg+2]` [Cys-S-Hg-S-Cys, Cysteine-S-conjugate of HgCl2], the “uptake into MRP2 vesicles compared with control vesicles” value on human MRP2 (5 μM mercuric conjugate) is on record as “significantly greater in MRP2 vesicles than in control vesicles”. In “Disposition of Hg” (TR− rats, i.v., 24 h), the “concentration of Hg in the outer stripe of the outer medulla, compared with rats of the same strain exposed to HgCl2 or CH3HgCl alone” value is “not significantly different”; the “fecal excretion of Hg, compared with rats of the same strain exposed to HgCl2 or CH3HgCl alone” value is reported as “not significantly different”; the “hematological burden of Hg, compared with rats of the same strain exposed to HgCl2 or CH3HgCl alone” value is listed as “significantly lower”; the “hepatic burden of Hg, compared with rats of the same strain exposed to HgCl2 or CH3HgCl alone” value was “not significantly different”. For the same compound, in the data set “Disposition of Hg” (TR− rats, i.v., 24 h), the “renal burden of Hg, compared with rats of the same strain exposed to HgCl2 or CH3HgCl alone” value is reported as “significantly greater than that of corresponding rats treated with HgCl2”; the “urinary excretion of Hg, compared with rats of the same strain exposed to HgCl2 or CH3HgCl alone” value is on record as “not significantly different”; the “cortical concentration of Hg, compared with rats of the same strain exposed to HgCl2 or CH3HgCl alone” value was “significant increase”. Besides, in the data set “Disposition of Hg” (control rats, i.v., 24 h), the “concentration of Hg in the outer stripe of the outer medulla, compared with rats of the same strain exposed to HgCl2 or CH3HgCl alone” value is on record as “not significantly different”; the “fecal excretion of Hg, compared with rats of the same strain exposed to HgCl2 or CH3HgCl alone” value was “significantly greater than that of corresponding rats exposed to HgCl2 alone”; the “hepatic burden of Hg” value is ~5 % of the administered dose; the “hepatic burden of Hg, compared with rats of the same strain exposed to HgCl2 or CH3HgCl alone” value was “increased significantly”. In “Disposition of Hg” (control rats, i.v., 24 h), the “renal burden of Hg, compared with rats of the same strain exposed to HgCl2 or CH3HgCl alone” value is “significantly greater than that of corresponding rats treated with HgCl2”; the “urinary excretion of Hg, compared with rats of the same strain exposed to HgCl2 or CH3HgCl alone” value was “not significantly different”; the “cortical concentration of Hg, compared with rats of the same strain exposed to HgCl2 or CH3HgCl alone” value was “significant increase”. Also, the “distribution of Hg in blood between plasma and cellular components” value in “Disposition of Hg” (24 h, data not shown) was “distributed evenly between plasma and cellular components”. In addition, in “Disposition of Hg” (i.v., 24 h), the “amount of Hg in blood, TR− rats compared with corresponding control rats” value is given as “slightly, but not significantly, greater”; the “renal burden of Hg, TR− rats compared with corresponding control rats” value is “more Hg was detected in kidneys of TR^− rats”; the “renal burden of Hg” value was ~70 % of the dose; the “cortical concentration of Hg, TR− rats compared with corresponding control rats” value was “tended to be greater”.

Turning to `[Cl][Hg][Cl]` [HgCl2, mercuric chloride], in the data set “Disposition of Hg” (TR− rats, i.v.), the “fecal excretion of Hg after 24 h” value is on record as “approximately 1.5 % of the administered dose” and the “urinary excretion of Hg in 24 h” value is given as “about 1.5 % of the administered dose”. In addition, in “Disposition of Hg” (TR− rats, i.v., 24 h), the “hepatic burden of Hg” value was ~6.5 % of the dose and the “renal burden of Hg (total renal mass)” value is given as 60 % of the administered dose. Besides, the “renal burden of Hg (total renal mass)” value in the data set “Disposition of Hg” (setting [2]) is “approximately 50 % of the administered dose”. Moreover, in the data set “Disposition of Hg” (control rats, i.v.), the “fecal excretion of Hg after 24 h” value is “approximately 3 % of the administered dose” and the “urinary excretion of Hg in 24 h” value is “approximately 4 % of the administered dose”. The “hepatic burden of Hg” value in “Disposition of Hg” (control rats, i.v., 24 h) is recorded as “approximately 3.5 % of the administered dose”. Further, the “distribution of Hg in blood between plasma and cellular components” value in the data set “Disposition of Hg” (24 h, data not shown) was “distributed evenly between plasma and cellular components”. In “Disposition of Hg” (i.v., 24 h), the “amount of Hg in blood, TR− rats compared with corresponding control rats” value is listed as “significantly greater”; the “renal burden of Hg, TR− rats compared with corresponding control rats” value is “significantly different than that of corresponding control (Wistar) rats”; the “administered dose present in blood” value is 1-2%; the “renal burden of Hg” value is on record as “approximately 50 % of the dose”. Besides, in “Disposition of Hg” (i.v., 24 h), the “cortical concentration of Hg, TR− rats compared with corresponding control rats” value is “tended to be greater”.

For the compound `CCCCC/C=C\C\C=C/C=C/C=C/[C@@H](SC[C@H](NC(=O)CC[C@H](N)C(=O)O)C(=O)NCC(=O)O)[C@@H](O)CCCC(=O)O` [LTC4, Leukotriene C4, reference compound], the “uptake into MRP2 vesicles compared with control vesicles” value at human MRP2 (50 nM LTC4, 2.5 min) is “significantly greater in MRP2 vesicles than in control vesicles”.

As to “Cysteine-S-conjugate of CH3HgCl [Cys-S-CH3Hg]”, the “uptake into MRP2 vesicles compared with control vesicles” value on human MRP2 (5 μM mercuric conjugate) is given as “significantly greater in MRP2 vesicles than in control vesicles”. In “Disposition of Hg” (TR− rats, i.v., 24 h), the “concentration of Hg in the outer stripe of the outer medulla, compared with rats of the same strain exposed to HgCl2 or CH3HgCl alone” value was “significantly greater” and the “cortical concentration of Hg, compared with rats of the same strain exposed to HgCl2 or CH3HgCl alone” value is listed as “significantly greater”. In the data set “Disposition of Hg” (control rats, i.v., 24 h), the “concentration of Hg in the outer stripe of the outer medulla, compared with rats of the same strain exposed to HgCl2 or CH3HgCl alone” value is reported as “significantly greater” and the “cortical concentration of Hg, compared with rats of the same strain exposed to HgCl2 or CH3HgCl alone” value is listed as “significantly greater”. In addition, in the data set “Disposition of Hg” (i.v., 24 h), the “cortical concentration of Hg, TR− rats compared with corresponding control rats” value is “no significant difference”.
